A short description of this assay: Membrane potential of mitochondria (JC-1 dye). The assay is classed as biochemical. The settings on record: 5 μg mitochondria mixed in 50 μL CCCP, room temperature 10 minutes, JC-1 2 μM. As to the method: In order to measure the membrane potential of the mitochondria isolated in Preparation Example 1, the mitochondrial protein concentration of the isolated mitochondria was quantified through the BCA to prepare 5 μg of mitochondria. The membrane potential of the mitochondria was measured using a JC-1 (molecular probes, cat no.1743159) dye.
Specifically, as an experimental group, 5 μg of the prepared mitochondria was mixed in 50 μL of PBS and then dispensed in a 96-well plate. In addition, as a control group, 50 μL of PBS without mitochondria was dispensed in a 96-well plate. In addition, as an additional experimental group, 5 μg of mitochondria was mixed in 50 μL of CCCP (R&D systems, CAS 555-60-2), then reacted at room temperature for 10 minutes, and then dispensed in a 96-well plate. In this case, CCCP is an ion transporter of mitochondria and depolarizes the membrane potential of mitochondria, thereby inhibiting the function of mitochondria.
Thereafter, each well was treated and reacted with the JC-1 dye so that the concentration was 2 μM, and then the absorbance was measured using a fluorescence microplate reader. […] The membrane potential of mitochondria was analyzed by calculating the ratio of […].

Consider `N#CC(C#N)=NNc1cccc(Cl)c1` [CCCP], for which the membrane potential activity result is recorded as “low membrane potential activity”.

These data come from patent US12636316B2, “Pharmaceutical composition for preventing or treating myositis, comprising isolated mitochondria as active ingredient” (PAEAN BIOTECHNOLOGY INC., priority 2019, dated 2026).
